From patent publication US9212165B2, “Bicarbocyclic and tricarbocyclic ethynyl derivatives and uses of same” (H. Lundbeck A/S, priority 2011, dated 2015)

What follows are compounds tested against mGluR5 (MPEP binding site) (Homo sapiens (Human), UniProt P41594) (assay: Radioligand binding assay (MPEP site radioligand, membrane filtration)). Settings: 5 nM radioligand binding to MPEP site; Cheng-Prusoff.
Procedure: Binding assays were performed as described in [J. A. O'Brien et al. Mol Pharmacol., 2003, 64, 731-740] with slight modifications, including that a radioligand that binds to the […] (MPEP) binding site was used in place of [^3H] MPEP. Briefly, after thawing, the membrane homogenates were resuspended in 50 mM Tris-HCl and 0.9% NaCl binding buffer at pH 7.4 to a final assay concentration of 20 μg protein/well for radioligand filtration binding. Incubations included 5 nM radioligand, membranes and either buffer or varying concentrations of compound. Samples were incubated for 60 min at room temperature with shaking. Non-specific binding was defined with 10 μM cold MPEP when using the radioligand. After incubation, samples were filtered over a GF/C filter (presoaked in 0.25% polyethyleneimine (PEI)) and then washed 4 times using a Tomtec® Harvester 96® Mach III cell harvester (Tomtec, Hamden, Conn.) with 0.5 mL ice-cold 50 mM Tris-HCl (pH 7.4).
IC50 values were derived from the inhibition curve and Ki values were calculated according to the Cheng and Prusoff equation of Ki=IC50/(1+[L]/Kd) described in [Y. Cheng and W. H. Prusoff Biochem. Pharmacal. 1973, 22, 3099-3108] where [L] is the concentration of radioligand and Kd is its dissociation constant at the receptor, derived from the saturation isotherm.

Sequence of mGluR5 (MPEP binding site) (P41594 21-1212): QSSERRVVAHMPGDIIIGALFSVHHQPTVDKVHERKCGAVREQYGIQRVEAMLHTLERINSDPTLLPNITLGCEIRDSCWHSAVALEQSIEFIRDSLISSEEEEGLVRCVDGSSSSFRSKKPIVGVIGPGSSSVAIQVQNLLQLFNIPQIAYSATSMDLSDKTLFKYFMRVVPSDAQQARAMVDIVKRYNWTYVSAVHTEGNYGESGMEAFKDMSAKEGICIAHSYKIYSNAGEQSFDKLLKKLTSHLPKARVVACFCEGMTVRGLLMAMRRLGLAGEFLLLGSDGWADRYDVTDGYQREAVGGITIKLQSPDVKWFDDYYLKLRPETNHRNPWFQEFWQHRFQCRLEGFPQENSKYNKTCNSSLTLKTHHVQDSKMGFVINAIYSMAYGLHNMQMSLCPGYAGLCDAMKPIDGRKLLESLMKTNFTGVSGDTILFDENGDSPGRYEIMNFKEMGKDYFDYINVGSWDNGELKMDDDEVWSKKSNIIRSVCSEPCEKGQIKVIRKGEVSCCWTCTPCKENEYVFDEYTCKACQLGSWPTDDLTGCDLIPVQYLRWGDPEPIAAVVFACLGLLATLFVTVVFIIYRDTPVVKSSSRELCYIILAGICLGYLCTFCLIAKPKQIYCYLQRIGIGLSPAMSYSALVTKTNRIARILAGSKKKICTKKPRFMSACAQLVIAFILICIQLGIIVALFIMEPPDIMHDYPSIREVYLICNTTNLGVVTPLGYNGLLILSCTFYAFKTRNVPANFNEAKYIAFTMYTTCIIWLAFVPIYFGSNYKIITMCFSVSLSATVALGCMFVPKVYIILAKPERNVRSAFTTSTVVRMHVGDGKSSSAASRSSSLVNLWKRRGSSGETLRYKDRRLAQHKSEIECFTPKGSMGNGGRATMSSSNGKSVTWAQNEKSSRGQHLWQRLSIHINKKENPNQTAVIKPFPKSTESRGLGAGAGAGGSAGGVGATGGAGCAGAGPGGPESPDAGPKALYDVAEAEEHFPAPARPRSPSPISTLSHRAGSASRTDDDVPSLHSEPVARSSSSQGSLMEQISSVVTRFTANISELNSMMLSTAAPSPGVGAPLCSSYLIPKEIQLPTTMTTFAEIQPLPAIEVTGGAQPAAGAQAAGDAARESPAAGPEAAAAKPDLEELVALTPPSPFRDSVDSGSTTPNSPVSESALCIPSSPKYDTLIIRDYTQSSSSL

| Structure (SMILES) | Ki [nM] |
| --- | --- |
| O=C(NC12CCCC(C#Cc3cccc(F)c3)(CC1)C2)c1cnccn1 (stereo not shown) [Example 3, pyrazine-2-carboxylic acid [5-(3-fluoro-phenylethynyl)-bicyclo[3.2.1]oct-1-yl]-amide] | 3 |
| O=C(NC12CCCC(C#Cc3cnccn3)(CC1)C2)c1cccc(Cl)c1 (stereo not shown) [Example 13, 3-Chloro-N-(5-pyrazin-2-ylethynyl-bicyclo[3.2.1]oct-1-yl)-benzamide] | 91 |
| Cc1nccc(C(=O)N[C@]23CCC[C@](C#Cc4ccccn4)(CC2)C3)n1 [Example 18, 2-methyl-N-((1R,5S)-5-(pyridin-2-ylethynyl)bicyclo[3.2.1]octan-1-yl)pyrimidine-4-carboxamide] | 10 |
| O=C(N[C@]12CCC[C@](C#Cc3ccccn3)(CC1)C2)c1ccc(F)cn1 [Example 20, 5-fluoro-N-((1R,5S)-5-(pyridin-2-ylethynyl)bicyclo[3.2.1]octan-1-yl)picolinamide] | 11 |
| Cc1nccc(C(=O)N[C@@]23CCC[C@@](C#Cc4ccccn4)(CC2)C3)n1 [Example 28, 2-methyl-N-((1S,5R)-5-(pyridin-2-ylethynyl)bicyclo[3.2.1]octan-1-yl)pyrimidine-4-carboxamide] | 17 |
| O=C(N[C@@]12CCC[C@@](C#Cc3ccccn3)(CC1)C2)c1ccc(F)cn1 [Example 30, 5-fluoro-N-((1S,5R)-5-(pyridin-2-ylethynyl)bicyclo[3.2.1]octan-1-yl)picolinamide] | 35 |
| Cn1ccc(C(=O)N[C@]23CCC[C@](C#Cc4cnccn4)(CC2)C3)n1 [Example 44, 1-methyl-N-((1R,5S)-5-(pyrazin-2-ylethynyl)bicyclo[3.2.1]octan-1-yl)-1H-pyrazole-3-carboxamide] | 34 |
| Cc1csc(C(=O)N[C@]23CCC[C@](C#Cc4cnccn4)(CC2)C3)n1 [Example 45, 4-methyl-N-((1R,5S)-5-(pyrazin-2-ylethynyl)bicyclo[3.2.1]octan-1-yl)thiazole-2-carboxamide] | 6.2 |
| Cn1ccc(C(=O)N[C@@]23CCC[C@@](C#Cc4cnccn4)(CC2)C3)n1 [Example 49, 1-methyl-N-((1S,5R)-5-(pyrazin-2-ylethynyl)bicyclo[3.2.1]octan-1-yl)-1H-pyrazole-3-carboxamide] | 590 |
| Cc1csc(C(=O)N[C@@]23CCC[C@@](C#Cc4cnccn4)(CC2)C3)n1 [Example 50, 4-methyl-N-((1S,5R)-5-(pyrazin-2-ylethynyl)bicyclo[3.2.1]octan-1-yl)thiazole-2-carboxamide] | 38 |
| Cc1cncc(C#CC23CC4CC(C2)CC(NC(=O)c2cccc(F)c2)(C4)C3)n1 [Example 56, 3-fluoro-N-[3-(6-methylpyrazin-2-ylethynyl)-1-adamantyl]benzamide] | 1300 |
| O=C(NC12CC3CC(CC(C#Cc4ccccn4)(C3)C1)C2)c1cnccn1 [Example 71, N-[3-(pyridin-2-ylethynyl)-1-adamantyl]pyrazine-2-carboxamide] | 4.7 |
| Cc1csc(C#CC23CC4CC(C2)CC(NC(=O)c2ccn(C)n2)(C4)C3)n1 [Example 81, 1-methyl-N-[3-(4-methylthiazol-2-ylethynyl)-1-adamantyl]-1H-pyrazole-3-carboxamide] | 120 |
